# Measured values reported in patent publication US20240299553A1, “INDOCARBOCYANINE LIPID DERIVATIVES FOR IN VIVO CARGO DELIVERY” (priority 2021, published 2024).
# pEC50: −log10 of the molar value.
# Tests used:
# [1] = test system: 4T1 syngeneic orthotopic breast carcinoma; assay: Confocal microscopy of 4T1 tumor slices after i.v. injection of dual-labeled liposomes; type: in vivo, mice; details: for extravasation and migration area in tumor: 24 h after i.v., 290 nm EPC/DSPE-PEG2000 liposomes with 0.2% DiD and Cy3-DSPE
# Protocol: Lipids at the following molar ratios: HSPC/Chol/DSPE-PEG2000 (57/38/5) or EPC/DSPE-PEG2000 (95:5) with addition of 0.2% ICL and/or 0.2% FPL were mixed and dried under a nitrogen stream. The dry lipid cake was resuspended in PBS for a total lipid concentration of 20 mM, then incubated at 60° C. for 30 minutes. The solution was then vortexed for 2 minutes and bath sonicated. Liposomes were extruded by a syringe extruder (Avestin, Ottawa, Canada) through Whatman Nucleopore Track-Etch Membranes (200 nm pore size, 15 times). HSPC-based liposomes were extruded at 60° C., EPC-based liposomes were extruded at room temperature. Size and zeta potential were measured at room temperature in the presence of 1% phosphate-buffered saline using Zetasizer Nano (Malvern, UK). Liposomes were stored at 4° C. at a final concentration of 10 mM (total lipid) for a maximum period of 8 weeks before use.
# 4T1 cell line was purchased from the ATCC and verified using a sequencing core. GL261 cells were obtained from the National Cancer Institute (NCI), and CT2A cells were a gift from Dr. Tom Seyfried (Boston College). LY2 cells were from Dr. Sana Karam, University of Colorado Anschutz Medical campus. Cells were grown at 37° C. in RPMI 1640 medium containing 10% heat-inactivated fetal bovine serum, 10 mM HEPES, 100 U/ml penicillin, and […] streptomycin (all from Corning Inc. New York, NY, USA). BALB/c mice were bred in-house. Mice of 8-10 weeks of age (females) were implanted with 0.5×10^6 cells into the mammary fat pad (4T1) or subcutaneously in the jaw region (LY2) and used for experiments 1 week later when tumors reached ˜200-300 mm^3. For brain tumors, C57BL/6 mice (6-8 weeks old) were implanted with a total 1×10^5 GL261 or CT-2A cells per animal using an established protocol. To determine the distribution of liposomes in tumors and organs, liposomes were injected with 50 μl of 10 mM total lipid intravenously. Blood was collected via periorbital plexus using heparin glass capillaries, and the plasma was separated by centrifugation at 500 g for 5 min. In some experiments, mice were preinjected before dissection with 50 μl of FITC-tomato lectin (1 mg/ml) and 50 μl Hoechst 33324 (2 mg/ml) to visualize the vasculature and the nuclei. Mice were sacrificed with carbon dioxide, followed by cardiac perfusion with PBS through the left ventricle.
# Nikon Eclipse AR1HD inverted confocal microscope with 405 nm, 488 nm, 561 nm, and 640 nm excitation lasers and corresponding emission filters was used. For high magnification imaging, liposomes were diluted 1:200 in PBS, mixed with glycerol at 1:1 ratio and 2 μl were placed on slide. For liposomes in plasma, the samples were diluted 1:20 and mixed with glycerol. The preparations in glycerol were spread under a coverslip and imaged under Apo60 or Apo100 Oil objective at 2048×2048 resolution. For tumor imaging, tumors or whole brains were frozen on dry ice and sliced with a blade into 1-2 mm thick slices. The slices were placed on a glass slide and imaged using Plan Apo 10 objective. Channels' voltage and laser intensity were adjusted using the dual labeled liposomes placed on a slide and imaged under the same magnification. These parameters were calibrated before each imaging session using the batch of liposomes used in that experiment. For quantification, multiple random image areas from different slices of the tumor (both periphery and center) were acquired at 512×512 resolution. Images were quantified with Fiji using customized macros. Briefly, 8-bit gray image stacks were thresholded for fluorescence in the Cy3 and Cy5 channels and the percentages of binary (positive) areas were calculated using the “Measure” function. All the data were plotted with Prism version 8.3.0 (GraphPad, San Diego, CA).
# LY2 head and neck cancer = assay: Confocal microscopy of LY2 tumors after injection of dual-labeled liposomes; type: in vivo, mice; details: 24 h; DiI/Cy5-DSPE labeled EPC/DSPE-PEG2000 liposomes
# Protocol: (§1) 4T1 cell line was purchased from the ATCC and verified using a sequencing core. GL261 cells were obtained from the National Cancer Institute (NCI), and CT2A cells were a gift from Dr. Tom Seyfried (Boston College). LY2 cells were from Dr. Sana Karam, University of Colorado Anschutz Medical campus. Cells were grown at 37° C. in RPMI 1640 medium containing 10% heat-inactivated fetal bovine serum, 10 mM HEPES, 100 U/ml penicillin, and […] streptomycin (all from Corning Inc. New York, NY, USA). BALB/c mice were bred in-house. Mice of 8-10 weeks of age (females) were implanted with 0.5×10^6 cells into the mammary fat pad (4T1) or subcutaneously in the jaw region (LY2) and used for experiments 1 week later when tumors reached ˜200-300 mm^3. […]
# (§2) Nikon Eclipse AR1HD inverted confocal microscope with 405 nm, 488 nm, 561 nm, and 640 nm excitation lasers and corresponding emission filters was used. […] For quantification, multiple random image areas from different slices of the tumor (both periphery and center) were acquired at 512×512 resolution. Images were quantified with Fiji using customized macros. Briefly, 8-bit gray image stacks were thresholded for fluorescence in the Cy3 and Cy5 channels and the percentages of binary (positive) areas were calculated using the “Measure” function. […]
# [2] = test system: syngeneic intracranial GL261 glioma; assay: Confocal microscopy of brain slices of GL261 glioma mice after i.v. dual-labeled liposomes; type: in vivo; details: 48 h post-injection, EPC/DSPE-PEG2000 liposomes, 0.2% DiI and 0.2% Cy5-DSPE
# Protocol: as §1, §2
# [3] = Plasma fluorescence elimination profile after liposome injection; type: in vivo, mice; details: 24 h post-injection; DiI/Cy5-DSPE liposomes
# Protocol: as §1, with “mm^3. For brain tumors, C57BL/6 mice (6-8 weeks old) were implanted with a total 1×10^5 GL261 or CT-2A cells per animal using an established protocol.” for “mm^3.”
# Tumors and livers were placed in a 24-well plate and scanned as described above. […] Mean fluorescence was determined from 8-bit TIFF images using Fiji software by drawing a region of interest around the tumors and using the “Measure” function to determine mean gray values. […] For plasma fluorescence profile, plasma collected at different time points was serially diluted, dotted on a nitrocellulose membrane, scanned as above, and the mean fluorescence of dots was plotted versus time with Prism.
# [4] = Ex vivo fluorescence imaging of excised tumors and livers; type: in vivo, mice
# Protocol: Tumors and livers were placed in a 24-well plate and scanned as described above. To match the intensity of the channels, the same liposomes used for injection were diluted (1:10), dotted on a 0.45 μm nitrocellulose membrane, and scanned together with the samples. Mean fluorescence was determined from 8-bit TIFF images using Fiji software by drawing a region of interest around the tumors and using the “Measure” function to determine mean gray values. Such measurement is independent of the organ cross-section area. The mean gray values of non-injected tumors were subtracted from the measurements. For plasma fluorescence profile, plasma collected at different time points was serially diluted, dotted on a nitrocellulose membrane, scanned as above, and the mean fluorescence of dots was plotted versus time with Prism.
# [5] = Lipid extraction of tumors and organs, dye biodistribution; type: in vivo, mice; details: 48 h post-injection
# Protocol: For extraction using a modified Bligh-Dyer method, 50-100 mg tissue was homogenized as described above, 10 parts of chloroform/methanol (2:1) were added to the homogenate (considering that tissue weight is 1 part), and the samples were mixed at 1400 rpm for 2 h at room temperature on Eppendorf Thermomixer. The tubes were centrifuged at 500 g for 10 min. The organic phase (bottom, approximately 80% of the added amount) was carefully collected, dotted on a PVDF membrane and scanned for DiI and Cy5 fluorescence as described above. Different dilutions of liposomes (standard curve) were scanned together with the samples. The percentage of the injected DiI and Cy5 in the extract was calculated from the standard curve and divided by tissue weight. The fluorescence of control non-injected organs was subtracted from that of injected organs. For TLC analysis, the mobile phase consisted of chloroform: methanol (9:1) with 1% trifluoroacetic acid and the samples were run on TLC Silica Gel 60 F254 plates (EMD Millipore).
# [6] = Skin extravasation and accumulation of liposomal lipid dyes; type: in vivo, Mouse
# Protocol: FIG. 40B: Liposomes were formulated with Cy3-DSPE, LR-DOPE or DiI. FIG. 40C: Mouse skin was excised 4 days after injection and the microscopic areas of accumulation and extravasation were counted. […] FIG. 40D-40F: circulation and skin accumulation of DiD and Cy5-DSPE liposomes (n=3 per group, 9 different skin areas pooled). FIG. 40G-40H: mixed DiI/Cy5-DSPE liposomes colocalize in skin blood vessels at 1 h, and colocalize in plasma (1000× magnification zoomed). Arrows in FIG. 40G point to DiI extravasation. […] Similar results were observed when mixed Cy3-DSPE/DiD liposomes were used (lower panel).
# MOLM13 leukemic cells = assay: MTT cytotoxicity assay in MOLM13 leukemic cells; type: cell-based; details: Homo sapiens, MOLM-13, 48 h
# human glioma cell lines = details: cited from earlier work
compound,measurement,setting,value
CCCCCCCCCCCCCCCCCC(=O)OC[C@H](COP(=O)(O)OCCNC(=O)CCCCCN1/C(=C/C=C/C2=[N+](C)c3ccccc3C2(C)C)C(C)(C)c2ccccc21)OC(=O)CCCCCCCCCCCCCCCCC.O=C[O-] [Cy3-DSPE],extravasation and migration area in tumor,[1]; p-value<0.0001,mostly stayed in blood vessels
CCCCCCCCCCCCCCCCCCN1C(=CC=CC=CC2=[N+](CCCCCCCCCCCCCCCCCC)c3ccccc3C2(C)C)C(C)(C)c2ccccc21.O=S(=O)([O-])c1ccc(Cl)cc1 [DiD],extravasation and migration area in tumor,[1]; p-value<0.0001,extravasated and migrated over a significantly larger area than Cy3-DSPE
CCCCCCCCCCCCCCCCCCN1C(=CC=CC2=[N+](CCCCCCCCCCCCCCCCCC)c3ccccc3C2(C)C)C(C)(C)c2ccccc21.[O-][Cl+3]([O-])([O-])[O-] [DiI],fluorescence positive area in tumor images,"[1]; 4 h, 24 h and 48 h post-injection, EPC/DSPE-PEG2000 DiI/Cy5-DSPE liposomes, p-value<0.0001",significantly larger area than Cy5-DSPE
same,extravasation and spreading in tumor,"[1]; 24 h, 150 nm HSPC/Chol/DSPE-PEG2000 liposomes (DOXIL formula), 0.2% DiI and Cy5-DSPE",more efficient extravasation and spreading
same,extravasation and distribution in tumor,"[1]; 24 h post-injection, EPC/DSPE-PEG2000 liposomes, 0.2 mole % DiI and Cy5-DSPE, i.v.",efficiently extravasated and migrated throughout the tumor
same,extravasation in tumor,LY2 head and neck cancer,much better extravasation
same,accumulation and spreading in glioma,[2],accumulated and spread in tumors much more efficiently than Cy5-DSPE
same,dye cleared from the circulation,[3],approximately 80%
same,fluorescence in liver images over time,"[4]; livers, later time points versus 1 h",increase
same,fluorescence in tumor images over time,"[4]; tumors, 1 h, 24 h, 48 h post-injection",continued to increase at 24 h and 48 h
same,tissues with the highest dye amount,[5],highest in the tumor and liver
same,dye amount in tumor and organ extracts over time,"[5]; tumors, livers, spleens, kidneys, 1 h, 24 h",increase in all organs except the kidney over 48 h
same,extravasation and accumulation in skin cells,"[6]; mixed DiI/Cy5-DSPE liposomes, 4 days later",only DiI extravasated and accumulated in skin cells
same,skin extravasation,"[6]; skin excised 4 days after injection, liposomes with Cy3-DSPE, LR-DOPE or DiI",more efficient extravasation than phospholipid dyes
Nc1ccn([C@@H]2O[C@H](CO)[C@@H](O)[C@@H]2O)c(=O)n1 [cytarabine],pEC50,MOLM13 leukemic cells,7.19
COc1cccc2c1C(=O)c1c(O)c3c(c(O)c1C2=O)C[C@@](O)(C(=O)CO)C[C@@H]3O[C@H]1C[C@H](N)[C@H](O)[C@H](C)O1 [doxorubicin],toxicity to glioma cells (IC50),human glioma cell lines,nanomolar range
CC(=O)O[C@H]1C(=O)[C@@]2(C)[C@H]([C@H](OC(=O)c3ccccc3)[C@]3(O)C[C@H](OC(=O)[C@H](O)[C@@H](NC(=O)c4ccccc4)c4ccccc4)C(C)=C1C3(C)C)[C@]1(OC(C)=O)CO[C@@H]1C[C@@H]2O [paclitaxel],toxicity to glioma cells (IC50),human glioma cell lines,nanomolar range
